Source: ChEMBL document CHEMBL4507292 (2021)

Legend:
[1] = test system: Phosphatidylinositol 4,5-bisphosphate 3-kinase catalytic subunit alpha isoform (Homo sapiens), P42336 [E545K]; conditions: Compound concentration 1000.0 nM
[2] = molecular target: Mitogen-activated protein kinase kinase kinase 13 (Homo sapiens) (UniProt O43283); conditions: Compound concentration 1000.0 nM
[3] = molecular target: Serine/threonine-protein kinase STK11 (Homo sapiens) (UniProt Q15831); conditions: Compound concentration 1000.0 nM
[4] = molecular target: Serine/threonine-protein kinase Nek1 (Homo sapiens) (UniProt Q96PY6); conditions: Compound concentration 1000.0 nM
[5] = molecular target: Fibroblast growth factor receptor 2 (Homo sapiens) (UniProt P21802); conditions: Compound concentration 1000.0 nM
[6] = test system: Mast/stem cell growth factor receptor Kit (Homo sapiens), P10721 [V559D,T670I]; conditions: Compound concentration 1000.0 nM
[7] = molecular target: Insulin receptor-related protein (Homo sapiens) (UniProt P14616); conditions: Compound concentration 1000.0 nM
[8] = molecular target: Mitogen-activated protein kinase 15 (Homo sapiens) (UniProt Q8TD08); conditions: Compound concentration 1000.0 nM
[9] = molecular target: Inhibitor of nuclear factor kappa-B kinase subunit epsilon (Homo sapiens) (UniProt Q14164); conditions: Compound concentration 1000.0 nM
[10] = molecular target: Serine/threonine-protein kinase Chk2 (Homo sapiens) (UniProt O96017); conditions: Compound concentration 1000.0 nM
[11] = molecular target: Serine/threonine-protein kinase BRSK2 (Homo sapiens) (UniProt Q8IWQ3); conditions: Compound concentration 1000.0 nM
[12] = molecular target: Atypical kinase COQ8A, mitochondrial (Homo sapiens) (UniProt Q8NI60); conditions: Compound concentration 1000.0 nM
[13] = molecular target: Interleukin-1 receptor-associated kinase 3 (Homo sapiens) (UniProt Q9Y616); conditions: Compound concentration 1000.0 nM
[14] = molecular target: Mitogen-activated protein kinase kinase kinase 2 (Homo sapiens) (UniProt Q9Y2U5); conditions: Compound concentration 1000.0 nM
[15] = molecular target: Mitogen-activated protein kinase kinase kinase 5 (Homo sapiens) (UniProt Q99683); conditions: Compound concentration 1000.0 nM
[16] = molecular target: Serine/threonine-protein kinase TAO3 (Homo sapiens) (UniProt Q9H2K8); conditions: Compound concentration 1000.0 nM
[17] = molecular target: Serine/threonine-protein kinase SIK1 (Homo sapiens) (UniProt P57059); conditions: Compound concentration 1000.0 nM
[18] = molecular target: Serine/threonine-protein kinase LATS1 (Homo sapiens) (UniProt O95835); conditions: Compound concentration 1000.0 nM
[19] = test system: ALK tyrosine kinase receptor (Homo sapiens), Q9UM73 [L1196M]; conditions: Compound concentration 1000.0 nM
[20] = test system: Tyrosine-protein kinase ABL1 (Homo sapiens), P00519 [F317L]; conditions: Compound concentration 1000.0 nM
[21] = test system: Epidermal growth factor receptor (Homo sapiens), P00533 [UNDEFINED MUTATION]; conditions: Compound concentration 1000.0 nM
[22] = test system: Leucine-rich repeat serine/threonine-protein kinase 2 (Homo sapiens), Q5S007 [G2019S]; conditions: Compound concentration 1000.0 nM
[23] = molecular target: High affinity nerve growth factor receptor (Homo sapiens) (UniProt P04629); conditions: Compound concentration 1000.0 nM
[24] = test system: Receptor-type tyrosine-protein kinase FLT3 (Homo sapiens), P36888 [K663Q]; conditions: Compound concentration 1000.0 nM
[25] = test system: Epidermal growth factor receptor (Homo sapiens), P00533 [UNDEFINED MUTATION]; conditions: Compound concentration 1000.0 nM; remark: listed apart in the source
[26] = molecular target: Vascular endothelial growth factor receptor 1 (Homo sapiens) (UniProt P17948); conditions: Compound concentration 1000.0 nM
[27] = molecular target: Serine/threonine-protein kinase pim-2 (Homo sapiens) (UniProt Q9P1W9); conditions: Compound concentration 1000.0 nM
[28] = molecular target: NT-3 growth factor receptor (Homo sapiens) (UniProt Q16288); conditions: Compound concentration 1000.0 nM
[29] = molecular target: Interleukin-1 receptor-associated kinase 4 (Homo sapiens) (UniProt Q9NWZ3); conditions: Compound concentration 1000.0 nM
[30] = test system: Tyrosine-protein kinase ABL1 (Homo sapiens), P00519 [Q252H]; conditions: Compound concentration 1000.0 nM
[31] = molecular target: SRSF protein kinase 2 (Homo sapiens) (UniProt P78362); conditions: Compound concentration 1000.0 nM
[32] = molecular target: Serine/threonine-protein kinase SBK1 (Homo sapiens) (UniProt Q52WX2); conditions: Compound concentration 1000.0 nM
[33] = molecular target: Histamine H4 receptor (Homo sapiens) (UniProt Q9H3N8); conditions: Compound concentration 10.0 uM
Insulin receptor = Insulin receptor (Homo sapiens, UniProt P06213); conditions: Compound concentration 1000.0 nM
[34] = molecular target: Bone morphogenetic protein receptor type-2 (Homo sapiens) (UniProt Q13873); conditions: Compound concentration 1000.0 nM
[35] = molecular target: Homeodomain-interacting protein kinase 2 (Homo sapiens) (UniProt Q9H2X6); conditions: Compound concentration 1000.0 nM
[36] = molecular target: Mitogen-activated protein kinase 3 (Homo sapiens) (UniProt P27361); conditions: Compound concentration 1000.0 nM
[37] = molecular target: Tyrosine-protein kinase JAK2 (Homo sapiens) (UniProt O60674); conditions: Compound concentration 1000.0 nM
[38] = molecular target: Rho-associated protein kinase 1 (Homo sapiens) (UniProt Q13464); conditions: Compound concentration 1000.0 nM
[39] = molecular target: 5-hydroxytryptamine receptor 7 (Homo sapiens) (UniProt P34969); conditions: Compound concentration 10.0 uM
[40] = molecular target: Fibroblast growth factor receptor 1 (Homo sapiens) (UniProt P11362); conditions: Compound concentration 1000.0 nM
[41] = molecular target: Glycogen synthase kinase-3 beta (Homo sapiens) (UniProt P49841); conditions: Compound concentration 1000.0 nM
[42] = molecular target: Mitogen-activated protein kinase 13 (Homo sapiens) (UniProt O15264); conditions: Compound concentration 1000.0 nM
[43] = molecular target: Tyrosine-protein kinase ABL1 (Homo sapiens) (UniProt P00519); conditions: Compound concentration 1000.0 nM
[44] = test system: Fibroblast growth factor receptor 3 (Homo sapiens), P22607 [G697C]; conditions: Compound concentration 1000.0 nM

Epidermal growth factor receptor (Homo sapiens), P00533 [UNDEFINED MUTATION], sequence (P00533 whole entry, looked up, stated change not applied): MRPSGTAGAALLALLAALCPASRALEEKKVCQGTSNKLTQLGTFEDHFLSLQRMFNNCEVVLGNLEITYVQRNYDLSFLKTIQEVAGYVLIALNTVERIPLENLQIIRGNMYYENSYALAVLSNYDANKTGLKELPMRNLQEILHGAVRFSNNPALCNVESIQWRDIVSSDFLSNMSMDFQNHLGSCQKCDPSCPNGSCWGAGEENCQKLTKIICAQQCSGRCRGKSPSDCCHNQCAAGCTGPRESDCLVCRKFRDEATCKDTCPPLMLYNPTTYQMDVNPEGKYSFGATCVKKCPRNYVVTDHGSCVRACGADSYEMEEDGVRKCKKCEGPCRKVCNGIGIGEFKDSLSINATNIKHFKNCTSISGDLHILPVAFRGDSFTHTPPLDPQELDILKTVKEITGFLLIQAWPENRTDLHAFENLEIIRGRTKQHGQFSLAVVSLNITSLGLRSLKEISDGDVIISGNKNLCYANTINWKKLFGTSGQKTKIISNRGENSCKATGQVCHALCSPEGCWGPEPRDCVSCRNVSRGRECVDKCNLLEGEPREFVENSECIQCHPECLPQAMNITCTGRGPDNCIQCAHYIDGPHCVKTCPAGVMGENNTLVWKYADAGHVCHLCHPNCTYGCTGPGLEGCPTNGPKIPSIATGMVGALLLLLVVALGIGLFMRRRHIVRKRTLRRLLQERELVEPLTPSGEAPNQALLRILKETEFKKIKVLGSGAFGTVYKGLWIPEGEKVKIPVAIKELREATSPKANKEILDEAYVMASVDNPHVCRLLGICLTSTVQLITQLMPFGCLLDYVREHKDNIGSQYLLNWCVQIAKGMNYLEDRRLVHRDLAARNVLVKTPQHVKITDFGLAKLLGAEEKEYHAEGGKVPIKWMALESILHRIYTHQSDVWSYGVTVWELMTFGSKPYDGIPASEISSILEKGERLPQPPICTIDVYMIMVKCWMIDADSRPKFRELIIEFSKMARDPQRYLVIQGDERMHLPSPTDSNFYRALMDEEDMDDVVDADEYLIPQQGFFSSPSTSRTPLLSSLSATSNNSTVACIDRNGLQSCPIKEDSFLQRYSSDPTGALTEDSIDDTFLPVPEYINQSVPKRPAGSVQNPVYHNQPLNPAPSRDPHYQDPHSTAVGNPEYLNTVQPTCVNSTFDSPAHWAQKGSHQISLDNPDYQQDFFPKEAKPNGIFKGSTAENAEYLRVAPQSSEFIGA
Tyrosine-protein kinase JAK2 (Homo sapiens), sequence (O60674 whole entry): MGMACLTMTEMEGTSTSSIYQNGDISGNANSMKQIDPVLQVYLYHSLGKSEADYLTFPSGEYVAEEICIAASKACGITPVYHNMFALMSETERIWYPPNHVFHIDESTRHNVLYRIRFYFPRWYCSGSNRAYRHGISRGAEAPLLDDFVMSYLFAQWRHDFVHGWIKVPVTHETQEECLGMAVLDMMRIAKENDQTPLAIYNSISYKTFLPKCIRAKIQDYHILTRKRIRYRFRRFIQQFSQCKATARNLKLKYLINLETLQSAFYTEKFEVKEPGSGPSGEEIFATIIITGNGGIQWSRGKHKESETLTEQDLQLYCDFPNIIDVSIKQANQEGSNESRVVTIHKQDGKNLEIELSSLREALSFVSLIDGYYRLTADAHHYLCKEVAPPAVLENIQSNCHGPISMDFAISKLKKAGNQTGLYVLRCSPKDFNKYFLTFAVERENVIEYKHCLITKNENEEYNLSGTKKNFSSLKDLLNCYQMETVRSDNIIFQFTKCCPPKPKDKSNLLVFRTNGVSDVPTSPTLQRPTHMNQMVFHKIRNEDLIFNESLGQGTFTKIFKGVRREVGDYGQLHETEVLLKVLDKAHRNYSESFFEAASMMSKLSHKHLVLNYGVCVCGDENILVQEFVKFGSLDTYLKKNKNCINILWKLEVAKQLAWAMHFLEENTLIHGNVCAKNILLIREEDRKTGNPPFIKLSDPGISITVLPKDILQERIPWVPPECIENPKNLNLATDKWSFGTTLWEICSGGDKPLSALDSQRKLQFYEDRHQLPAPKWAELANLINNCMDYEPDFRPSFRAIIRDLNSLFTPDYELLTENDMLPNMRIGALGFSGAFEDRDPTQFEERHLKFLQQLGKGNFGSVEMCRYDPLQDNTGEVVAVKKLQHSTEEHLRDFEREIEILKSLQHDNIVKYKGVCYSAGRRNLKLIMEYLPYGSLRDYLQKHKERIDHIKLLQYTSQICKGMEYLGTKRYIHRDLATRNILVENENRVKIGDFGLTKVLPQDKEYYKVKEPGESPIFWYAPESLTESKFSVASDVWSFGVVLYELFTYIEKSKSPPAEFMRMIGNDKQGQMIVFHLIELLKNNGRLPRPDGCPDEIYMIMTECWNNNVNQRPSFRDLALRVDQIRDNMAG
Serine/threonine-protein kinase SIK1 (Homo sapiens), sequence (P57059 whole entry): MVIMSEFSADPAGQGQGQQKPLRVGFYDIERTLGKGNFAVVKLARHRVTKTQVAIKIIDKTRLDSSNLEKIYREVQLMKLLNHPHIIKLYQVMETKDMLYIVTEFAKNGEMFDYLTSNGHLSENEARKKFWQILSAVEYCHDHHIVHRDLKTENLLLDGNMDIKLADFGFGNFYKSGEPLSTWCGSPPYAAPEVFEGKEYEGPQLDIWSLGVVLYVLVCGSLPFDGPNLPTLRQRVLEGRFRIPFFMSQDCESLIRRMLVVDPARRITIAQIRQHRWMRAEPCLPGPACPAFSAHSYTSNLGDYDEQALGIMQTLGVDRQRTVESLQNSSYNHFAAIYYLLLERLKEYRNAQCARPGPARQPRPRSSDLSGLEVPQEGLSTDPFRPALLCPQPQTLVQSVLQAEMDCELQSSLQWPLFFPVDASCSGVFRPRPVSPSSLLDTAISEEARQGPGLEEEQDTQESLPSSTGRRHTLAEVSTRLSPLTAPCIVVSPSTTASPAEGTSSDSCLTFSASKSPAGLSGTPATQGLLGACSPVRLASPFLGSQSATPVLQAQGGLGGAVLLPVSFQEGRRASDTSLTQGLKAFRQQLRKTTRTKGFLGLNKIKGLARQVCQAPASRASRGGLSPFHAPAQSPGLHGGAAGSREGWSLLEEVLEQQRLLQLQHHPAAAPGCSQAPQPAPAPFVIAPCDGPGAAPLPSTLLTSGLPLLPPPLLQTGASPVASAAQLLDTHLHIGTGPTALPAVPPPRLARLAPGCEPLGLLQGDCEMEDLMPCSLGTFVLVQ
Interleukin-1 receptor-associated kinase 3 (Homo sapiens), sequence (Q9Y616 whole entry): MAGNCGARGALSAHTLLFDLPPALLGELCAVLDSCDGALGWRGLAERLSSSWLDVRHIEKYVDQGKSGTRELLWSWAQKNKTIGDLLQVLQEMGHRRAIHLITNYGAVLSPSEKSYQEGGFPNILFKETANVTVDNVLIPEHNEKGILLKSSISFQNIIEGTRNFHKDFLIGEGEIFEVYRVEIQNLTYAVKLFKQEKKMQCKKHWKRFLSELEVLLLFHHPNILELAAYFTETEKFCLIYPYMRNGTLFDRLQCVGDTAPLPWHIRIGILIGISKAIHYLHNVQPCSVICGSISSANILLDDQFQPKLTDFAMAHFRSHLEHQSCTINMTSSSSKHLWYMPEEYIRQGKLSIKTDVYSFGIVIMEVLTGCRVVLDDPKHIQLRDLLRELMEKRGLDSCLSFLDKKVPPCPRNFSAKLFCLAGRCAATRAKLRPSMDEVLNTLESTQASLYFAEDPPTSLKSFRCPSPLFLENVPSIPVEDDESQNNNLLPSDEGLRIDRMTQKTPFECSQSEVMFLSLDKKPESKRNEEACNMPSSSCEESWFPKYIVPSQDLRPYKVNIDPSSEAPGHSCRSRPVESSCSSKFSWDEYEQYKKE
Homeodomain-interacting protein kinase 2 (Homo sapiens), sequence (Q9H2X6 whole entry, looked up): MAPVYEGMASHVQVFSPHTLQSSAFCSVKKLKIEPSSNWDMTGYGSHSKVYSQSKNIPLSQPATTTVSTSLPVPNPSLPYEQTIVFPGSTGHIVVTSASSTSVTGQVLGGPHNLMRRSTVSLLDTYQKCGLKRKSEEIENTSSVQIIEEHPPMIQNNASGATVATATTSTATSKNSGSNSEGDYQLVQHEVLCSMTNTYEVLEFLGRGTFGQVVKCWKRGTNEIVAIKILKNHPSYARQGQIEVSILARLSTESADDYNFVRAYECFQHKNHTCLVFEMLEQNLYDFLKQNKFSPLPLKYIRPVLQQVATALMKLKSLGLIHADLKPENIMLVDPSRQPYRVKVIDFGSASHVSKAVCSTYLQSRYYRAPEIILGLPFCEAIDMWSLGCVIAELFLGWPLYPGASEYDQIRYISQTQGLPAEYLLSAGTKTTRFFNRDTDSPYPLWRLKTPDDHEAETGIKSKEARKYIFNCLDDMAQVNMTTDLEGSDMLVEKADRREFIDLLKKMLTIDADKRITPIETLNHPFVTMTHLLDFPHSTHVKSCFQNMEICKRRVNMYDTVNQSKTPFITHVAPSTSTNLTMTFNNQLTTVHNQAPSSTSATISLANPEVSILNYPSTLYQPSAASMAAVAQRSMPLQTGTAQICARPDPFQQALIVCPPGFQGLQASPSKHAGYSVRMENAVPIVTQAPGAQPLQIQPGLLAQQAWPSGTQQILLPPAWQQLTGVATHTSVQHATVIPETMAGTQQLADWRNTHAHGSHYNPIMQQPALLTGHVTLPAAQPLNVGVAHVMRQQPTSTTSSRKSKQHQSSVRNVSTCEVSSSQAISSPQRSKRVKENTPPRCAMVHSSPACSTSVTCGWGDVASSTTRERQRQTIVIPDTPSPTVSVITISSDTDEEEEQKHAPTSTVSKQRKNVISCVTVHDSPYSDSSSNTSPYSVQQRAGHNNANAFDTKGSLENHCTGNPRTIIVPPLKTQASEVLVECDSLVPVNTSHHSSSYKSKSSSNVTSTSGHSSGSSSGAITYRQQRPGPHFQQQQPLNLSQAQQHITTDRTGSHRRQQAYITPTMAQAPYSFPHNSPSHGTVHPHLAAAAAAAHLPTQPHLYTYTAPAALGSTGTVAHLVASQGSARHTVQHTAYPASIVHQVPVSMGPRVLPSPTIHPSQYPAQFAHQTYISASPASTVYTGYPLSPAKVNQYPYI

Cc1c(C(=O)O)cc(-c2ccc(C3CCNCC3)cc2)c2ccc(-c3ccc(C(F)(F)F)cc3)cc12 [PPTN-NC]
inactive: residual activity [1] 89% | residual activity [2] 100% | residual activity [3] 94% | residual activity [4] 100% | residual activity [5] 100% | residual activity [6] 100% | residual activity [7] 100% | residual activity [8] 100% | residual activity [9] 100% | residual activity [10] 100% | residual activity [11] 100% | residual activity [12] 100% | residual activity [13] 100% | residual activity [14] 100% | residual activity [15] 100% | residual activity [16] 100% | residual activity [17] 94% | residual activity [18] 86% | residual activity [19] 100% | residual activity [20] 100% | residual activity [21] 100% | residual activity [22] 100% | residual activity [23] 100% | residual activity [24] 100% | residual activity [25] 100% | residual activity [26] 80% | residual activity [27] 100% | residual activity [28] 100% | residual activity [29] 100% | residual activity [30] 85% | residual activity [31] 82% | residual activity [32] 100% | inhibition [33] -4.71% | residual activity (Insulin receptor) 100% | residual activity [34] 100% | residual activity [35] 100% | residual activity [36] 100% | residual activity [37] 100% | residual activity [38] 100% | inhibition [39] -3.66% | residual activity [40] 100% | residual activity [41] 100% | residual activity [42] 96% | residual activity [43] 85% | residual activity [44] 100%

O=C(O)c1cc(-c2ccc(C3CCNCC3)cc2)c2ccc(-c3ccc(C(F)(F)F)cc3)cc2c1 [PPTN]
inactive: residual activity [1] 100% | residual activity [2] 100% | residual activity [3] 100% | residual activity [4] 100% | residual activity [5] 100% | residual activity [6] 100% | residual activity [7] 100% | residual activity [8] 100% | residual activity [9] 100% | residual activity [10] 100% | residual activity [11] 100% | residual activity [12] 100% | residual activity [13] 100% | residual activity [14] 100% | residual activity [15] 100% | residual activity [16] 100% | residual activity [17] 100% | residual activity [18] 88% | residual activity [19] 100% | residual activity [20] 100% | residual activity [21] 100% | residual activity [22] 100% | residual activity [23] 100% | residual activity [24] 100% | residual activity [25] 100% | residual activity [26] 86% | residual activity [27] 100% | residual activity [28] 100% | residual activity [29] 100% | residual activity [30] 100% | residual activity [31] 100% | residual activity [32] 100% | inhibition [33] -6.7% | residual activity (Insulin receptor) 100% | residual activity [34] 100% | residual activity [35] 100% | residual activity [36] 100% | residual activity [37] 100% | residual activity [38] 100% | inhibition [39] 17.8% | residual activity [40] 100% | residual activity [41] 100% | residual activity [42] 97% | residual activity [43] 72% | residual activity [44] 100%
